# According to patent publication US20120130146A1, “CONTINUOUS ADMINISTRATION OF CILENGITIDE IN CANCER TREATMENTS” (Merck Patent GmbH, priority 2009, published 2012):
# pEC50, pIC50: −log10 of the molar value.
# Experiments:
# A549 = assay: Serum growth stimulation assay on A549 NSCLC cells, Example 5; type: cell-based, human; settings: for pEC50: Homo sapiens, NSCLC A549, chemotherapeutic alone or + Cilengitide
# Text: (§1) The methods established and described in detail previously (Goodman and Hahn a; b) were used to measure the effect of combinations of integrin inhibitors and chemotherapeutics on carcinoma cell and human endothelial cell proliferation.
# (§2) Points were run in duplicate or in triplicate. Reagent blanks, containing media plus Alamar Blue without cells, were run on each plate. Blank values were subtracted from test values and were routinely 5-10% of uninhibited control values.
# (§3) 5.5 Methods of Evaluation and Statistics Chemotherapeutic agents and αv-integrin blockers were serially diluted alone or together (combination therapy). In some assays the chemotherapeutic agent was serially diluted alone or in combination with of alpha-v integrin blocker. Growth inhibition curves were plotted and a shift of the combination therapy curve to lower concentrations in relation to the single agent curves was interpreted as an additional effect, produced by combination versus monotherapy.
# (§4) The αv-integrin competitive inhibitor Cilengitide (EMD 121974) was tested alone and in combination with vinorelbine in a serum growth stimulation assay using human carcinoma cells or human umbilical vein endothelial cells (HUVECs). In these assays cells are cultured in serum, or in an endothelial growth stimulation medium (Goodman & Hahn).
# A498 = assay: Cell proliferation assay on A498 renal carcinoma cells; type: cell-based, human; settings: for pEC50: Homo sapiens, Renal A498, chemotherapeutic alone or + Cilengitide
# Text: as §1, §2, §3, §4
# Cilengitide concentration is 2 μM (constant).
# [1] = tested on: human umbilical vein endothelial cells (HUVECs); assay: Growth (Alamar Blue) assay on HUVEC, Example 5; type: cell-based; settings: Homo sapiens
# Text: as §1, §2, §3, §4
# Detroit 562 = assay: Cell proliferation assay on SCCHN Detroit 562 cells; type: cell-based, human
# [2] = in combination with 2 μM Cilengitide
pEC50 (A549),pEC50 (A498),Structure (SMILES),pIC50 ([1]; agent alone),"pIC50 [1, 2]",enhancement of growth inhibition by the presence of cilengitide (A549; A549),enhancement of growth inhibition by the presence of cilengitide (A498; A498),enhancement of growth inhibition by the presence of cilengitide (Detroit 562)
8.10,7.00,CC(=O)O[C@H]1C(=O)[C@@]2(C)[C@H]([C@H](OC(=O)c3ccccc3)[C@]3(O)C[C@H](OC(=O)[C@H](O)[C@@H](NC(=O)c4ccccc4)c4ccccc4)C(C)=C1C3(C)C)[C@]1(OC(C)=O)CO[C@@H]1C[C@@H]2O [Paclitaxel],8.00,10.30,–,–,–
8.10,7.22,CCC1=C[C@@H]2CN(C1)Cc1c([nH]c3ccccc13)[C@@](C(=O)OC)(c1cc3c(cc1OC)N(C)[C@H]1[C@@](O)(C(=O)OC)[C@H](OC(C)=O)[C@]4(CC)C=CCN5CC[C@]31[C@@H]54)C2 [Vinorelbine],7.70,9.10,synergistically enhanced,synergistically enhanced,synergistically enhanced
